Assay results published in patent US8921424B2, “Histone deacetylase inhibitors, process for preparation and uses thereof” (Zhejiang Hisun Pharmaceutical Co. Ltd., priority 2007, dated 2014).
Where two headings read alike, the source gives them in different places.

Experiments:
MDAMB435 = assay: Cell-based proliferation assay (SRB), MDAMB435; conditions: Homo sapiens
Procedure: (§1) Cell-Based Proliferation Assay for Determination of GI50 Values
(§2) A rapid multiwell plate assay using Sulforhodamine B (SRB) protein stain was adopted to evaluate the growth inhibitory effects of the compounds of the present invention. The screening panel of cancer cell lines includes Colo205 and HCT116 colon cancer cells, MDA-MB231 and MDA-MB435 chest cancer cells, A549 lung cancer cells, and Chinese hamster ovary cell line CHO, which were obtained from ATCC.
(§3) The cell line Colo205 is grown in RPMI 1640 medium containing 2 mM L-glutamine, 5% fetal bovine serum, and 1.0 mM sodium pyruvic acid. Cell lines A549 and MDA-MB231 are grown in RPMI 1640 medium containing 2 mM L-glutamine and 5% fetal bovine serum. The cell line MDA-MB435 is grown in DMEM medium containing 2 mM L-glutamine and 5% fetal bovine serum. The cell lines HCT 116 is grown in IMEM medium containing 2 mM L-glutamine and 5% fetal bovine serum. The CHO cell line, used as a normal control on toxicity, is grown in a special medium for cell line. For a typical screening experiment, A549 and Colo205 cells are inoculated into 96-well microtiter plates, with 100 μL per well, and 2000 and 5000 cells per well respectively for either cell line. MDA-MB435, HCT116, MDA-MB231 and CHO cells are also inoculated into 96-well microtiter plates, with 6000 cells per well. After cell inoculation, the microtiter plates are incubated at 37° C., 5% CO2, and 100% relative humidity for 24 hr in order to make cells adhere to well wall.
(§4) After 24 h incubation or time zero for drug addition, with each cell line 50 μl of cold 50% (w/v) TCA is added to wells used for control to fix cells in situ. Also at time zero, cells in other wells are treated with 100 μl of compound of different concentrations for 24 hr, 48 hr, and 72 hr respectively, with varying final compound concentration (0.1 μM, 1 μM, 5 μM 10 μM). For each treatment duration at each compound concentration, there are triplicate wells, as well as an array of control wells including a blank control well (cell culture medium only, no cells), a no-compound control well (adding same volume of cell culture medium but no compound), a positive control well (treated with Suberoylanilide hydroxamic acid (SAHA)), and normal cell well control (CHO cells). Following the addition of compounds, cell plates are incubated for 24 h, 48 h or 72 h per treatment group at 37° C., 5% CO2, and 100% relative humidity. The Treatment is then terminated by addition of cold TCA and incubation of 1 hr at 4° C. The supernatant is discarded, and all wells are washed five times with de-ioned water and air dried. Then each well is added with 100 μl sulforhodamine B (SRB) solution (0.4% (w/v) made in 1% acetic acid) and cell plates are incubated for 20-30 minutes at room temperature. After staining, unbound dye is removed by washing five times with 1% acetic acid and the plates are air dried. Bound stain is subsequently solubilized with 10 mM (200 μL) Tris base with the help of 5 min platform vibration or pipetting up and down, and the absorbance is read on an automated plate reader (M5 detection system, MD Group Ltd.) at a wavelength of 565 nm (calibrated zero reading of blank control at wavelength of 690 nm). The analytical software, XL-fit has been used to generate GI50 from a series of data thus obtained.

[1] = Microsomal stability and clearance; format: in vitro ADME, human, mouse; conditions: microsomal stability; Table 4
Procedure: Measure of Microsomal Stability and Clearance with Compounds of this Invention
Verapamil (positive control) and compound solution, both at 10 mM, are diluted 200 fold. There are six reaction time points in the experiment (0 min, 5 min, 15 min, 30 min, 45 min, and 60 min), and triplicate samples are used for each data point. There are controls for time zero and negative drug effect (negative control containing no incubation buffer or enzyme). For each compound or Verapamil sample, there are also samples treated with compound or Verapamil at concentrations of no positive effect (at 5 μM and 2.5 μM, respectively). Diluted positive control (Verapamil) and compound solution are mixed with pre-heated (37° C.) incubation buffer (100 mM potassium phosphate buffer, NADPH regeneration system solution B, NAPDH regeneration system solution A, HLM/MLM in Milli-Q ultrapure water), and incubated at 37° C. for 10 min. 100 μL of stop solution mixture is (containing 80% acetonitrile, and 20% DMSO, both of HPLC grade) is dispensed into wells of separate sampling plates into each well. At each reaction time point (0 min, 5 min, 15 min, 30 min, 45 min, and 60 min) 50 μL of reaction solution is taken from wells in the incubation plate and transferred to its corresponding well in the sampling plate, and mixed by pipetting up and down with stop solution already added there. The sampling plates are then covered, placed on ice, and centrifuged at 2,000 rpm at 4° C. for 15 min. 100 μL supernatant is then taken from each well to LC/MS analysis (or stored at 4° C. in refrigerator until analysis).
Data analysis: % remaining of compound is calculated by area of each time point with respect to time 0% remaining against time (min) curve is plotted using the first-phase exponential decay equation y=y0e(−kT) on the Prism 4.0. Results are shown in the format of TOP, K, t1/2 (min), R2 value and % remaining against time curve.

MDAMB231 = assay: Cell-based proliferation assay (SRB), MDAMB231; conditions: Homo sapiens, MDA-MB-231; Table 4
Procedure: as §1, §2, §3, §4

HDACs = assay: In vitro HDACi assay (BIOMOL fluorescent-based HDAC activity assay); format: biochemical
Procedure: (§5) In Vitro HDACi Assay for Determination of IC50 Values
(§6) The assay has been carried out in white 96 well formats according to the BIOMOL's method. […] The reaction mixture was incubated at room temperature for 2 hours. Flur de lys Developer was added and the reaction was incubated for 10 min. Briefly, deacetylation of the substrate sensitizes to the developer, which then generates a fluorophore. The fluorophore is excited with 360 nm light and the emitted light (460 nm) is detected on a fluorometric plate reader (Molecular Device Ultra Microplate detection system, MD Group Ltd).
(§7) The analytical software, Prism 4.0 (GraphPad Software Inc) has been used to generate IC50 from a series of data.

HDAC6 = HDAC6 (Homo sapiens (Human), UniProt Q9UBN7); assay: In vitro HDACi assay, HDAC6; format: biochemical; conditions: Table 3; read-out: IC50 (nM) HDAC6
Sequence of HDAC6 (Q9UBN7 whole entry, species assumed): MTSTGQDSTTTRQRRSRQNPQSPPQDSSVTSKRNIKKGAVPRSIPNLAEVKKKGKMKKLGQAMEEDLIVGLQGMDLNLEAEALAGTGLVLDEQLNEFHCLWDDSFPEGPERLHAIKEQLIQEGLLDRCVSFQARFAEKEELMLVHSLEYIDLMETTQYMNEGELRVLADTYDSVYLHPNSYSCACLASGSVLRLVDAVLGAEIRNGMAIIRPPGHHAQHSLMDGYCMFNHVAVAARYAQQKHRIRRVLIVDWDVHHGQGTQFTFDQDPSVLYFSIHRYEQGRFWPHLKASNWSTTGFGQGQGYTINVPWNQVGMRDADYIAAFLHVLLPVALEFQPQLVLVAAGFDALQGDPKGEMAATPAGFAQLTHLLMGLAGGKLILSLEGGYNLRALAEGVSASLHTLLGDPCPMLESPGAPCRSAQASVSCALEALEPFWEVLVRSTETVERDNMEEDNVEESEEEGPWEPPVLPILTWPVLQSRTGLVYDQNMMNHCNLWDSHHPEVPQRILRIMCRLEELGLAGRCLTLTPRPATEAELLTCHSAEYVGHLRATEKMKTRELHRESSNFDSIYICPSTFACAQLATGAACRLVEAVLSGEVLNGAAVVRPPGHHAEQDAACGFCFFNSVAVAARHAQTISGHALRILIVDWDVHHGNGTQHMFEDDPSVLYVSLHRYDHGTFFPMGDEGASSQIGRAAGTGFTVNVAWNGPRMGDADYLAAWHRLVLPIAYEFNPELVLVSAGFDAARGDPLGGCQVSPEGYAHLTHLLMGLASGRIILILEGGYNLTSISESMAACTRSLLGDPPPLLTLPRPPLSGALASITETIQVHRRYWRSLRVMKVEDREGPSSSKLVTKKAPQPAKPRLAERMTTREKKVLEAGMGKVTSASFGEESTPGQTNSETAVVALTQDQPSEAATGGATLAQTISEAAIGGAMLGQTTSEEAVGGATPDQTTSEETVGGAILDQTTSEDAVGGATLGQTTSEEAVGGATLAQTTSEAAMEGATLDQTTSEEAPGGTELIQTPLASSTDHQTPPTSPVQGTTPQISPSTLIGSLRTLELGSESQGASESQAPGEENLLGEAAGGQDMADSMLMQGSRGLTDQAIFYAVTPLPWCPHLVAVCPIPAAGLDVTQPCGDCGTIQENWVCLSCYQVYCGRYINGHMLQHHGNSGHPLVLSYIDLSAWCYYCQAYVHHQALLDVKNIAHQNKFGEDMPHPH
Procedure: as §5, §6, §7

SKOV-3 = assay: Cell-based proliferation assay (SRB), SKOV-3; conditions: Homo sapiens
Procedure: as §1, §2, §3, §4

HCT116 = assay: Cell-based proliferation assay (SRB), HCT116; conditions: Homo sapiens
Procedure: as §1, §2, §3, §4

BXPC-3 = assay: Cell-based proliferation assay (SRB), BXPC-3; conditions: Homo sapiens
HL-60 = assay: Cell-based proliferation assay (SRB), HL-60; conditions: Homo sapiens
Colo205 = assay: Cell-based proliferation assay (SRB), Colo205; conditions: Homo sapiens
Procedure: as §1, §2, §3, §4

[2] = Table 3, read-out: IC50 (nM) HDACs
[3] = Table 4, read-out: HDAC enzyme inhibition activity IC50

| SMILES | GI50 (MDAMB435; MDA-MB-435, Table 3) [µM] | GI50 (MDAMB435; MDA-MB-435, Table 4) [µM] | half-life [1] [h] | GI50 (MDAMB231) [µM] | IC50 (HDACs; [2]) [nM] | IC50 (HDACs; [3]) [nM] | IC50 (HDAC6) [nM] | GI50 (SKOV-3; SK-OV-3, Table 3) [µM] | GI50 (SKOV-3; SK-OV-3, Table 4) [µM] | GI50 (HCT116; HCT-116, Table 3) [µM] | GI50 (HCT116; HCT-116, Table 4) [µM] | GI50 (BXPC-3; BXPC-3, Table 3) [µM] | GI50 (HL-60; HL-60, Table 3) [µM] | GI50 (HL-60; HL-60, Table 4) [µM] | GI50 (Colo205; COLO 205, Table 3) [µM] | GI50 (Colo205; COLO 205, Table 4) [µM] | GI50 (BXPC-3; BXPC-3, Table 4) [µM] |
| --- | --- | --- | --- | --- | --- | --- | --- | --- | --- | --- | --- | --- | --- | --- | --- | --- | --- |
| CCN(CC)CCSc1ccc(/C=C/C(=O)NO)cc1NCCCc1ccccc1 [Example 1, 3-(4-(2-(diethylamino)ethylthio)-3-(3-phenylpropylamino)phenyl)-N-hydroxy-acrylamide] | 3.33 | 3.33 | 1.4 | 3.49 | 98 | 98000 | 627 | 4.57 | 4.57 | 0.78 | 0.78 | 15 | 3.52 | 3.52 | 5.68 | 5.68 | – |
| CCCNc1cc(/C=C/C(=O)NO)ccc1SCCN(CC)CC [Example 3, 3-(4-(2-(diethylamino)ethylthio)-3-(propylamino)phenyl)-N-hydroxy-acrylamide] | 2.6 | 2.6 | 1.8 | 2.98 | 19 | 19000 | 653 | 2.58 | 2.58 | 3.65 | 3.65 | 14.5 | 1.98 | 1.98 | 2.95 | 2.95 | – |
| CCN(CC)CCSc1ccc(/C=C/C(=O)NO)cc1NC(C)=O [Example 4] | – | 3.56 | 1.6 | 4.63 | > 100 | 86000 | 357 | – | 0.7 | – | 2.02 | – | – | 1.63 | – | 2 | 3.56 |
| CCN(CC)CCSc1ccc(/C=C/C(=O)NO)cc1[N+](=O)[O-] [Example 5, 3-(4-(2-(diethylamino)ethylthio)-3-nitrophenyl)-N-hydroxy-acrylamide] | 3.56 | – | 2.2 | 1.92 | 86 | 35000 | 313 | 0.7 | – | 2.02 | – | 95.4 | 1.63 | – | 2 | – | – |
| CCN(CC)CCSc1ccc(/C=C/C(=O)NO)cc1NCc1ccccc1 [Example 6, 3-(3-(benzylamino)-4-(2-(di-ethylamino)ethylthio)phenyl)-N-hydroxy-acrylamide] | 1.95 | – | 2.5 | 4.39 | 35 | 96000 | 275 | 2.81 | – | 0.78 | – | 4.33 | 1.32 | – | 2.28 | – | – |
| C=CCNc1cc(/C=C/C(=O)NO)ccc1SCCN(CC)CC [Example 7, 3-(3-(allylamino)-4-(2-(di-ethylamino)ethylthio)phenyl)-N-hydroxy-acrylamide] | – | – | – | – | > 100 | – | 350 | – | – | – | – | – | – | – | – | – | – |
| CCN(CC)CCSc1ccc(/C=C/C(=O)NO)cc1NC [Example 8, 3-(4-(2-(diethylamino)ethylthio)-3-(methylamino)phenyl)-N-hydroxy-acrylamide] | 16.6 | – | – | – | 95 | – | 800 | 15.6 | – | 13.9 | – | 16 | 15.2 | – | 10.6 | – | – |
| CCN(CC)CCSc1ccc(/C=C/C(=O)NO)cc1N [Example 9, 3-(3-amino-4-(2-(diethylamino)ethylthio)phenyl)-N-hydroxy-acrylamide] | – | – | – | – | > 100 | – | 295 | – | – | – | – | – | – | – | – | – | – |
| CCCCCNC(=O)Nc1cc(/C=C/C(=O)NO)ccc1SCCN(CC)CC [Example 10, 3-(4-(2-(diethylamino)ethylthio)-3-(3-pentylureido)phenyl)-N-hydroxy-acrylamide] | 10.2 | – | – | – | 55 | – | 200 | 16.9 | – | 18.2 | – | 19.9 | 15.7 | – | 17.6 | – | – |
| C=CCCCNc1cc(/C=C/C(=O)NO)ccc1SCCN(CC)CC [Example 12, 3-(4-(2-(diethylamino)ethylthio)-3-(pent-4-enylamino)phenyl)-N-hydroxy-acrylamide] | – | – | – | – | > 100 | – | 310 | – | – | – | – | – | – | – | – | – | – |
| CCN(CC)CCSc1ccc(/C=C/C(=O)NO)cc1NC(=O)C(Cl)Cl [Example 13, 3-(3-(2,2-dichloroacetamido)-4-(2-(diethylamino)ethylthio)phenyl)-N-hydroxy-acrylamide] | 5.96 | – | – | – | – | – | – | 3.82 | – | 2.56 | – | 97.7 | 4.31 | – | 5.63 | – | – |
